Test results: patent US20160274087A1, “SCREENING ASSAY FOR AGENTS THAT INFLUENCE BETA CELL NUMBER AND/OR PHENOTYPE” (VRIJE UNIVERSITEIT BRUSSEL, priority 2013, published 2016)

Legend:
INS1 832/13 cell line = test: Proliferation of INS1 832/13 cell line in serum-free medium; format: cell-based; settings: serum-free culture medium; data not shown
[1] = target: T1, mineralocorticoid receptor (MR) (Homo sapiens, UniProt P08235); settings: cited from earlier work
T1 sequence (P08235 1-984): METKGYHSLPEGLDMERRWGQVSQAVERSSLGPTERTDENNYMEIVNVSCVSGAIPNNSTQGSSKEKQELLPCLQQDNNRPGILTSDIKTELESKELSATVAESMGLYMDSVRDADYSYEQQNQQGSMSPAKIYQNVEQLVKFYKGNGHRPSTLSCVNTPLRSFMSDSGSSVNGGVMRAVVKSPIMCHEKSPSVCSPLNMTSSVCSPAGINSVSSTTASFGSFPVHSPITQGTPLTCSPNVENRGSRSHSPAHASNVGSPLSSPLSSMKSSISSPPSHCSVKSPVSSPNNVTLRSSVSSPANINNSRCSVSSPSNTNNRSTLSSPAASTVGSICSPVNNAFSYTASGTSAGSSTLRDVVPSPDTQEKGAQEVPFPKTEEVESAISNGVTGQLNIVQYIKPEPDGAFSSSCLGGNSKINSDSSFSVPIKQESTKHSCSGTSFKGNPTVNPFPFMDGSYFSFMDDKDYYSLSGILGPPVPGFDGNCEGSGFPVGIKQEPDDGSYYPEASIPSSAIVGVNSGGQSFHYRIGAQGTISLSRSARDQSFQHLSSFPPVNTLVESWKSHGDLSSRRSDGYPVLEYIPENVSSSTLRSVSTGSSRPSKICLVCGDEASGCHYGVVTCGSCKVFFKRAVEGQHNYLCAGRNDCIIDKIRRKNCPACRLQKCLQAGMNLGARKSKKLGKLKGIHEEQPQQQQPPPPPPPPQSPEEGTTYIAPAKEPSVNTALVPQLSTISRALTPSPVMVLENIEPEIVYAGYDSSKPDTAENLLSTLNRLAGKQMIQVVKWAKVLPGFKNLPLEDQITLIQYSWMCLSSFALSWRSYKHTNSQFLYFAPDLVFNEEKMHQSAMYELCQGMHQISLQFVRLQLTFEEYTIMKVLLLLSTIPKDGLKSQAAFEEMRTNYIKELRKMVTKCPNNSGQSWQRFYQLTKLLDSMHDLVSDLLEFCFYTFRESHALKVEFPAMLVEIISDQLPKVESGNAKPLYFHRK

C[C@]12CCC(=O)C=C1CC[C@@H]1[C@@H]2[C@@H](O)C[C@@]2(C)[C@H]1CC[C@]2(O)C(=O)CO [Hydrocortisone, hydrocortisone]
proliferation of INS1 832/13 cell line (INS1 832/13 cell line): does not induce the proliferation
Relative Potencies MR [1]: 1
